Laboratory results taken from patent US4866038A, “Method of stimulating integumental melanocytes by topical application of analogs of alpha-msh” (University Patents, Inc., priority 1988, dated 1989).
Non-standard residues stand in square brackets, D forms with d. Residues, ends and D or L forms follow the SMILES beside them. Phe(4-NO2) = N[C@@H](Cc1ccc([N+](=O)[O-])cc1)C(=O)O; Phg = N[C@H](C(=O)O)c1ccccc1; Nle = CCCC[C@H](N)C(=O)O

Columns and labels:
[1] = tested on: frog (Rana pipiens); assay type: cell-based
Experimental: (§1) Biological effect on in vivo and in vitro melanosome dispersion was examined using the frog (Rana pipiens) and the lizard (Anolis caroliniensis). [See Hadley et al., Science 213:1025-1027(1981)]; similar examinations were conducted with respect to the duration of its ability to stimulate melanosome dispersion in vitro using the skin bioassay as described in Shimume, Endrochrinology, 54:553-560(1954). The in vitro results are depicted in Table I.

[2] = tested on: TA-98 strain of S. typhimurium; test: Ames microbacterial assay; details: for REVERTANTS PER PLATE WITH S-9 / REVERTANTS PER PLATE WITHOUT S-9 / […] PLATE WITHOUT S-9: TA-98, spontaneous revertants subtracted
Experimental: The Ames microbacterial assay was used for these tests which were performed both with and without a microsomal enzyme/NADPH generating system. Briefly, this test measures the number of reverse mutations which occur in special histidine-dependent strains of Salmonella typhimurium. Positives (mutations) are scored as the number of revertant cells which are able to form colonies in a histidine-deficient growth medium after exposure to a mutagenic substance.
All substances were dissolved in sterile 0.9% sodium chloride (without preservatives) to concentrations of 10^-2, 10^-3 and 10^-4 Molar. The TA-98 strain of S. typhimurium was used and experiments were performed with and without exposure to S-9 rat liver microsomal enzymes and an NADPH generating system. This enzyme cocktail can metabolically activate some compounds to mutagenic species. In addition to the melanotropins, Doxorubicin (Adriamycin™) was also simultaneously tested. […] It was thus included to act as a positive control. […] For the actual evaluation of revertants, the identity of the specific test compound was blinded.

[3] = tested on: lizard (Anolis caroliniensis); assay type: cell-based
Experimental: as §1

[4] = tested on: Mice with some pigmentation on their skin; test: topical Azone cream on mice with some skin pigmentation; assay type: in vivo, mouse; details: 1.8% azone, MSH 0.001% or 0.003%
Description: Example 4 was repeated with compositions comprising alpha-MSH or [Nle^4, D--Phe^7 ]-alpha-MSH in propylene glycol and 1-dodecylazacycloheptan-2-one [a synthetic polar surfactant previously known to enhance transdermal penetration of other compounds. See, e.g., Stoughton, R. B., Arch. Dematol. 118:479(1982); Stoughton, R. B. and W. O. McClure, Drug Devel. Indust. Pharm. 9(4):725(1983); (Azone)]. Although the vehicle was a solid at room temperature, it immediately softened and spread easily when applied to the shaved skin of the mouse.
In this example, the azone concentration was 1.8% and the MSH final concentration was either 0.001% (1mg/100g cream base) or 0.003%.
Mice with some pigmentation on their skin were treated with the same cream as Example 5.
The tails of the treated animals darkened in spite of not being directly treated topically.

[5] = tested on: C57BL/6JA^y yellow mouse; test: subcutaneous injection, follicular melanogenesis in the yellow mouse; assay type: in vivo
Description: Alpha-MSH and [Nle^4 D-Phe^7 ]--alpha-MSH were synthesized. Mice (C57BL/6JA^y) originally obtained from the Jackson Laboratories (Bar Harbor, ME) were raised in our laboratory with continuous access to food and water.
Melanotropins induce melanogenesis only during hair growth, and melanosomes are continuously incorporated into cells of the hair shaft as long as the hair remains in the anagen (proliferative) phase of the hair cycle. Eumelanin synthesis in only those hairs currently growing results in the formation of a pattern showing the specific areas on the animal in the anagen phase at the time of hormone injection.

[6] = tested on: C57BL/6JA^y mice; test: topical application in PEG ointment, follicular melanogenesis in the mouse; assay type: in vivo
Description: An area (2-3 cm^2) of hair on the posterior dorsum of 48-day old mice was plucked; in mice of this age, hair follicles in the posterior dorsum are in the telogen (resting) phase of the hair cycle. Plucking hairs from resting follicles stimulates new hair growth and by 7 days later those hairs being erupting through the skin surface. Mice were fitted with cardboard collars to prevent investigation and spread of the ointment to non-treated areas of the skin and then housed individually in cages. The ointment containing [Nle^4, D-Phe^7 -]alpha-MSH (0.5 ml, 10^-6 M) was applied daily to the plucked area at the time of new hair eruption. A sample of emerging hair was removed prior to topical application of the melanotropin and every 24 hours thereafter for seven days.
Eumelanin was not visible within hairs taken from control mice. […] Only phaeomelanosomes were present in mice treated with the control ointment containing no melanotropin.

[7] = single injection 0.05 ml, 10^-6 M

Compound: CCCC[C@H](NC(C)=O)C(=O)N[C@@H](CCC(=O)O)C(=O)N[C@@H](Cc1c[nH]cn1)C(=O)N[C@H](Cc1ccccc1)C(=O)N[C@@H](CCCNC(=N)N)C(=O)N[C@@H](Cc1c[nH]c2ccccc12)C(=O)NCC(N)=O [Ac--[Nle^4 --D-Phe^7]--alpha-MSH4-10 --NH2]
- Relative Potency Frog [1]: 0.02
- REVERTANTS PER PLATE WITH S-9 ([2]; 10^-2 M): 0
- REVERTANTS PER PLATE WITHOUT S-9 ([2]; 10^-2 M): 0
- REVERTANTS PER PLATE WITH S-9 ([2]; 10^-3 M): 0
- REVERTANTS PER PLATE WITHOUT S-9 ([2]; 10^-3 M): 0
- REVERTANTS PER PLATE WITH S-9 ([2]; 10^-4 M): 0
- REVERTANTS PER PLATE WITHOUT S-9 ([2]; 10^-4 M): 0

Compound: CCCC[C@H](NC(C)=O)C(=O)N[C@@H](CCC(=O)O)C(=O)N[C@@H](Cc1c[nH]cn1)C(=O)N[C@H](C(=O)N[C@@H](CCCNC(=N)N)C(=O)N[C@@H](Cc1c[nH]c2ccccc12)C(=O)NCC(=O)N[C@@H](CCCCN)C(N)=O)c1ccccc1 [Ac--[Nle^4 --Plg^7]--alpha-MSH4-11 --NH2] (Ac-[Nle]EH[Phg]RWGK-NH2)
- Relative Potency Frog [1]: 0.14
- Relative Potency Lizard [3]: 0.14

Compound: CCCC[C@H](NC(C)=O)C(=O)N[C@@H](CCC(=O)O)C(=O)N[C@@H](Cc1c[nH]cn1)C(=O)N[C@@H](Cc1ccccc1)C(=O)N[C@@H](CCCNC(=N)N)C(=O)N[C@@H](Cc1c[nH]c2ccccc12)C(N)=O [Ac--[Nle^4 --alpha-MSH4-9 --NH2] (Ac-[Nle]EHFRW-NH2)
- Relative Potency Frog [1]: 0.0007
- Relative Potency Lizard [3]: 0.18

Compound: CCCC[C@H](NC(C)=O)C(=O)N[C@@H](CCC(=O)O)C(=O)N[C@@H](Cc1c[nH]cn1)C(=O)N[C@@H](Cc1ccccc1)C(=O)N[C@@H](CCCNC(=N)N)C(=O)N[C@@H](Cc1c[nH]c2ccccc12)C(=O)NCC(=O)N[C@@H](CCCCN)C(N)=O [Ac--[Nle^4]-alpha-MSH4-11 --NH2] (Ac-[Nle]EHFRWGK-NH2)
- Relative Potency Frog [1]: 0.0019
- Relative Potency Lizard [3]: 1.54

Compound: CCCC[C@H](NC(C)=O)C(=O)N[C@@H](CCC(=O)O)C(=O)N[C@@H](Cc1c[nH]cn1)C(=O)N[C@@H](Cc1ccc([N+](=O)[O-])cc1)C(=O)N[C@@H](CCCNC(=N)N)C(=O)N[C@@H](Cc1c[nH]c2ccccc12)C(=O)NCC(=O)N[C@@H](CCCCN)C(N)=O [Ac--[Nle^ 4 --pNO2 Phe^7]--alpha-MSH4-11 --NH2] (Ac-[Nle]EH[Phe(4-NO2)]RWGK-NH2)
- Relative Potency Frog [1]: 0.0009
- Relative Potency Lizard [3]: 0.20

Compound: COc1cccc2c1C(=O)c1c(O)c3c(c(O)c1C2=O)C[C@@](O)(C(=O)CO)C[C@@H]3O[C@H]1C[C@H](N)[C@H](O)[C@H](C)O1 [Adriamycin, Doxorubicin]
- […] PLATE WITHOUT S-9 ([2]; 10 µg/ml): 230
- […] PLATE WITHOUT S-9 ([2]; 100 µg/ml): 1940
- […] PLATE WITHOUT S-9 ([2]; 1.0 g/ml): 0
- mutagenicity in vitro ([2]; TA-98, with and without S-9): significantly mutagenic

Compound: [Nle^4, D--Phe^7 ]--alpha-MSH [[Nle^4, D-Phe^7]-alpha-MSH]
- histologic examination of pigment [4]: increased pigment in the areas of non-follicular melancytes
- tail colour, tail not directly treated [4]: darkened
- coat color change ([5]; 14 consecutive daily injections): entire coat color was found to be changed
- duration of eumelanogenesis after the one injection [5, 7]: 96 h
- time to shift from phaeomelanin production to eumelanin synthesis within hair bulbs [5, 7]: 24 h
- time to eumelanin within hair bulbs following application ([6]; topical ointment 0.5 ml, 10^-6 M daily, microscopic examination): ≤ 24 h
- melanosomes within follicular melanocytes, electron microscopic examination ([6]; topical ointment daily): presence of eumelanotic melanosomes within follicular melanocytes
